Holding throughout (test): two-electrode voltage clamp, Xenopus oocytes, -70 mV
Type in all cases: cell-based
A general note: In two-electrode clamp one electrode senses voltage and the other passes current.

For one assay, the target named is T1, GluN1^ΔM4+M4^N1/GluN2A (Rattus norvegicus; Mus musculus, UniProt P35436+P35439).
T1 construct: gene Grin1; M4-truncated GluN1 plus separately expressed M4 fragment carrying GluN1 signal peptide, with full-length GluN2A; Xenopus oocytes

A further assay concerns the target T2, GluN1^ΔM4+M4^N1/GluN2D (Rattus norvegicus; Mus musculus, UniProt P35439+Q03391).
T2 construct: gene Grin1; M4-truncated GluN1 plus separately expressed M4 fragment carrying GluN1 signal peptide, with full-length GluN2D; Xenopus oocytes
The conditions noted are these: saturating glutamate and glycine, PS pre-applied 45 s.

Another assay has as its target T3, GluN1/GluN2A (Rattus norvegicus; Mus musculus, UniProt P35436+P35439).
T3 construct: gene Grin1; full-length wild-type subunits in pNKS2, cRNA in Xenopus laevis oocytes; heterotetramer (rat GluN1 with mouse GluN2A)

The target of the next assay is T4, GluN1/GluN2A^ΔM4+M4^N2A (Rattus norvegicus; Mus musculus, UniProt P35436+P35439).
T4 construct: gene Grin1; full-length GluN1 with M4-truncated GluN2A plus separately expressed GluN2A M4 fragment; Xenopus oocytes
The note with it: saturating glutamate and glycine, PS pre-applied 45 s.

SMILES strings stand for the structures. Where a name gives a salt, the structure may show the parent alone.

T3 sequence (P35436 23-1464, other chains not shown): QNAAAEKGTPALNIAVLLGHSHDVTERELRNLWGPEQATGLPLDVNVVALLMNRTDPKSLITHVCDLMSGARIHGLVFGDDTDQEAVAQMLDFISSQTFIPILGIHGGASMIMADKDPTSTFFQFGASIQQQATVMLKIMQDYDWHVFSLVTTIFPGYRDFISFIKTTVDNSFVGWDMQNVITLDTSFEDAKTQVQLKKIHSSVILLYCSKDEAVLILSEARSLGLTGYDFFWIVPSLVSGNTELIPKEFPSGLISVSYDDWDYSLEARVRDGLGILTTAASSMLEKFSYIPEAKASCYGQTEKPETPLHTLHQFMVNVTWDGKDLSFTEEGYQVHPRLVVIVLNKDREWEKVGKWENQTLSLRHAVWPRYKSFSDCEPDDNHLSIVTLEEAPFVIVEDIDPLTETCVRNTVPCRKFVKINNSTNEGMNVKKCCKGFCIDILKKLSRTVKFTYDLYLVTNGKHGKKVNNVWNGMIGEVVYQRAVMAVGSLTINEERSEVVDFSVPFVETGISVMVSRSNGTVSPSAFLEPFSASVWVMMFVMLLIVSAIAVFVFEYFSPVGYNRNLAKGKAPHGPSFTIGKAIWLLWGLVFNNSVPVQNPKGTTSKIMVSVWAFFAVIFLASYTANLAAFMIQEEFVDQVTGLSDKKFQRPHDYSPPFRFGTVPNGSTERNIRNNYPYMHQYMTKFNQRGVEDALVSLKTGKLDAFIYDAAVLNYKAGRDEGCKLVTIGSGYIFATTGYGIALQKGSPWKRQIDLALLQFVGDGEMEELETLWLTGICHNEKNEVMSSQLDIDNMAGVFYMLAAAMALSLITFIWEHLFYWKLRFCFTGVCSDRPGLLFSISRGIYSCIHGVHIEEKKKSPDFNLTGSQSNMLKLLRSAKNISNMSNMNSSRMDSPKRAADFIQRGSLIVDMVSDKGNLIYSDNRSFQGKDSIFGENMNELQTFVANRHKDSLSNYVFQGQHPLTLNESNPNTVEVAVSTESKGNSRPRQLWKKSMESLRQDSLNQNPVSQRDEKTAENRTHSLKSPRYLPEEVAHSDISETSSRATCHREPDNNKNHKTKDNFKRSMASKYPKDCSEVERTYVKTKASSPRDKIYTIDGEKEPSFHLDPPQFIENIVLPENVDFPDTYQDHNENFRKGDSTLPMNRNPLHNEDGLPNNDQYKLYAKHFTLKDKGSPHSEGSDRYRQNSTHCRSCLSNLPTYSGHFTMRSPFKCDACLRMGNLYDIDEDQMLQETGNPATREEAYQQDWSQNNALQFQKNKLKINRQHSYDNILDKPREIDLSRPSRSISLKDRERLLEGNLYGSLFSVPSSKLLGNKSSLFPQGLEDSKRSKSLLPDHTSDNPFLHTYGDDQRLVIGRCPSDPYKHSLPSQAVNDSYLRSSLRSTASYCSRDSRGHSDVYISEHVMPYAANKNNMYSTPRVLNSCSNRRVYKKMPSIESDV
T4 sequence (P35436 23-803, stated change not applied, other chains not shown): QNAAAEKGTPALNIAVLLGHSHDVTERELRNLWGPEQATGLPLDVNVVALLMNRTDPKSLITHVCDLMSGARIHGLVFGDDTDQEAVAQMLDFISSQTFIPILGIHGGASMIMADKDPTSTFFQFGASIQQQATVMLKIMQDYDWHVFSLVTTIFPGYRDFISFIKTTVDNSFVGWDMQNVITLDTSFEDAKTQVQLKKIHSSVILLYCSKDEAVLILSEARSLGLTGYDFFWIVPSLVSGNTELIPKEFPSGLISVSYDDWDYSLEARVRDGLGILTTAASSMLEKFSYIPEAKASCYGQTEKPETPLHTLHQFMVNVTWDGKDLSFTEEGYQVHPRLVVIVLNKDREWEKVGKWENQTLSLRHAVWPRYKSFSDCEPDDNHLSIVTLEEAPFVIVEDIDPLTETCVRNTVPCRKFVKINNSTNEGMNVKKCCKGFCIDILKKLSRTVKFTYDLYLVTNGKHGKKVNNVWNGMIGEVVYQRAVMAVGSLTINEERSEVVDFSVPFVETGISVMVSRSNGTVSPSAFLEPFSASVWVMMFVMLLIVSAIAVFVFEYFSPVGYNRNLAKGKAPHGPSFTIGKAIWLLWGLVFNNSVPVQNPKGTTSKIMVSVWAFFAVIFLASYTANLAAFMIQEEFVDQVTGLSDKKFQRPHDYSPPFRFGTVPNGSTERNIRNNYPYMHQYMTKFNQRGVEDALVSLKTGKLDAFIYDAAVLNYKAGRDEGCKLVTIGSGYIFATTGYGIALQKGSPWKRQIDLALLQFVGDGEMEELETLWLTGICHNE
T4 sequence (P35436 804-1464, stated change not applied, other chains not shown): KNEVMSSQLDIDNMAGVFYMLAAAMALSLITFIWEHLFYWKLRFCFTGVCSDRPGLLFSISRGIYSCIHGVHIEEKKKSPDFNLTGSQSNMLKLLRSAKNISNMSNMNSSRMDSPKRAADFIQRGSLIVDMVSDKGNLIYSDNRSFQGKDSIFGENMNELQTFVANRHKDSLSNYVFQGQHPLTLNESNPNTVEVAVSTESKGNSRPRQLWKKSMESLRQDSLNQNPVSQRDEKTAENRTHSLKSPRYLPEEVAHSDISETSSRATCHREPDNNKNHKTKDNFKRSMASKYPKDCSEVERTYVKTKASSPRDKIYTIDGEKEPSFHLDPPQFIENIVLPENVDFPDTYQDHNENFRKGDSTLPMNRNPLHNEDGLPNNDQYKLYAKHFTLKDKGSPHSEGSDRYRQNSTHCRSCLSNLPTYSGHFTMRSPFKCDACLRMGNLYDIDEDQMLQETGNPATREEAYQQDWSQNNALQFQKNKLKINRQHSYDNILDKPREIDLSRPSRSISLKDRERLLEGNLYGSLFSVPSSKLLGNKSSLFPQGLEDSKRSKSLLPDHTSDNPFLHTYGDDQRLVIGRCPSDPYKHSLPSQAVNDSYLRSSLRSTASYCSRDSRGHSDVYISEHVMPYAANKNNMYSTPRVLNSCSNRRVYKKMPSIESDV

In general, EC50 refers to the concentration needed to bring the measured effect to its halfway point. Higher therefore signals lower potency in that assay. In the case of `CC(=O)[C@H]1CC[C@H]2[C@@H]3CC=C4C[C@@H](OS(=O)(=O)O)CC[C@]4(C)[C@H]3CC[C@]12C` [pregnenolone sulfate, 20-oxo-5-pregnen-3β-yl sulfate], the EC50 at GluN1^ΔM4+M4^N1/GluN2A was 15 ± 1.1 µM; at GluN1/GluN2A, 12.4 ± 1.3 µM. The “Imax potentiation (fold)” value at GluN1^ΔM4+M4^N1/GluN2D turned out to be 1.45 ± 0.19 fold. Further, the “Imax potentiation at 100 μM (fold)” value on GluN1/GluN2A^ΔM4+M4^N2A is on record as ~ 1.1 fold.

These data come from paper PMC8517087, “Analysis of M4 Transmembrane Segments in NMDA Receptor Function: A Negative Allosteric Modulatory Site at the GluN1 M4 is Determining the Efficiency of Neurosteroid Modulation” (Frontiers in Pharmacology, 2021).
